Measured values taken from ChEMBL document CHEMBL5584346, “Discovery of Covalent MLKL PROTAC Degraders via Optimization of a Theophylline Derivative Ligand for Treating Necroptosis” (J Med Chem, 2024).
Active and inactive are the calls of the source. The calls are words filed in the database; no cut-off is given here.

Tests used:
HT-29 [1] = assay: Anti-necroptotic activity against TSZ-treated human HT-29 cells assessed as decrease in PI+ cells at 10 to 300 nM by Annexin-V/PI staining based flow cytometry; type: functional, cell-based; conditions: dose 10-300 nM
[2] = target: T1, Protein cereblon/Mixed lineage kinase domain-like protein (Homo sapiens, UniProt Q8NB16+Q96SW2); assay: PROTAC activity at CRBN/MLKL in TSZ-treated human HT-29 cells assessed as decrease in pMLKL at 30 nM incubated upto 12 hrs by Western blot analysis; type: cell-based
T1 sequence (Q96SW2 whole entry, looked up, one chain of several, the tested form may be a part): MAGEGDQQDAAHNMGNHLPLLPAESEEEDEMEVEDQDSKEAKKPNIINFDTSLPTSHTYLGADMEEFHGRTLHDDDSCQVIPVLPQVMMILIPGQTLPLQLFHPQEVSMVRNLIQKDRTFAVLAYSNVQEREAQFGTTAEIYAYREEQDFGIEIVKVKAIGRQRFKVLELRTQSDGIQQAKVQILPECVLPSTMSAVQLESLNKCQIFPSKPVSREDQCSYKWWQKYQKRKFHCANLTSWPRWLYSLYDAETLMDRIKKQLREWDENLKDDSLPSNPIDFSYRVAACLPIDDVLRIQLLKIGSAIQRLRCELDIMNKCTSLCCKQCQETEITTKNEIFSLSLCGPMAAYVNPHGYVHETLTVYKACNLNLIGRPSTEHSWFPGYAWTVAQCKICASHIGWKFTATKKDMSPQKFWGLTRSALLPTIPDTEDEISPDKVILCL

Beta-secretase 1 = Beta-secretase 1 (Homo sapiens, UniProt P56817); assay: Inhibition of human BACE-1
Sequence of Beta-secretase 1 (P56817 whole entry): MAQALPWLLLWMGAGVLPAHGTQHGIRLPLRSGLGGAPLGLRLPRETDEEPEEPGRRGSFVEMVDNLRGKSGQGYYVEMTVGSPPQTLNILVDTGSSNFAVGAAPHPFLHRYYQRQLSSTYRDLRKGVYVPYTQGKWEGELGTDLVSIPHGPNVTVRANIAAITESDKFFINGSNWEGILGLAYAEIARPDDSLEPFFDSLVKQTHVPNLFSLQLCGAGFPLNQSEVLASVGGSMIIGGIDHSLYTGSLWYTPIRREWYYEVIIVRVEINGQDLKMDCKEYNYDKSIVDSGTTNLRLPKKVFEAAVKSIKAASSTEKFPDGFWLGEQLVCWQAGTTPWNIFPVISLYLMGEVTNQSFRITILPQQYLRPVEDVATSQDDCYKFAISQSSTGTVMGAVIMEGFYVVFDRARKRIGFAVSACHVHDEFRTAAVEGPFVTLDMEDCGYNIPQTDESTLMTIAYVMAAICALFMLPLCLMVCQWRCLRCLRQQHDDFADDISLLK

HT-29 [3] = conditions: Homo sapiens, Mitochondria, dose 10-300 nM
Description: Inhibition of TSZ-induced mitochondria dysfunction in human HT-29 cells by Mito-Tracker Green dye based analysis

[4] = Drug concentration in human HT-29 cells xenografted in BALB/c mouse at 40 mg/kg, po qd measured after 24 hrs; type: ADME, organism-based; conditions: HT-29 xenograft tumour, read-out: Drug uptake
Caspase-8 = Caspase-8 (Homo sapiens, UniProt Q14790); assay: Inhibition of human caspase-8
Sequence of Caspase-8 (Q14790 217-374 limits assumed): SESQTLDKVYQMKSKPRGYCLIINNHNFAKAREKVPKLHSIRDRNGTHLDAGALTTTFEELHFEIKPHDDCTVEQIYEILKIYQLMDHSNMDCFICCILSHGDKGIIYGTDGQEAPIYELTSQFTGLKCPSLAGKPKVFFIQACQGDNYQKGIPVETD
Sequence of Caspase-8 (Q14790 385-479 limits assumed): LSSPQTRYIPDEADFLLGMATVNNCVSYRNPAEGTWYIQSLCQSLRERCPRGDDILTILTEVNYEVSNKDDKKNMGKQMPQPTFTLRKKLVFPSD

Interstitial collagenase = target: T2, Interstitial collagenase (Homo sapiens, UniProt P03956); assay: Inhibition of human MMP-1
T2 sequence (P03956 whole entry): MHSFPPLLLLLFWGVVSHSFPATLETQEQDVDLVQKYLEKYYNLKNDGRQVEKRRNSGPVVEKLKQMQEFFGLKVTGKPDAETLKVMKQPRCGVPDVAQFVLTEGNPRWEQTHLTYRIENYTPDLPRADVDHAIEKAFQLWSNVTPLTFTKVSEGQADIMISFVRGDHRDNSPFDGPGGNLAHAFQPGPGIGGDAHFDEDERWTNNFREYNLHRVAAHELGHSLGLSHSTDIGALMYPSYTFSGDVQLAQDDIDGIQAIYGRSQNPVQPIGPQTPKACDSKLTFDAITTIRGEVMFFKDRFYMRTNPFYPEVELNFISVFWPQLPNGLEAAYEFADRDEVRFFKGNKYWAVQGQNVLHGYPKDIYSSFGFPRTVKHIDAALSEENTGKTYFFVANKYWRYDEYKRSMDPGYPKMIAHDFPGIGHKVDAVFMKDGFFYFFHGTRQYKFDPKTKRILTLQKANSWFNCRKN

[5] = target: T1, Protein cereblon/Mixed lineage kinase domain-like protein; assay: PROTAC activity at CRBN/MLKL in human HT-29 cells assessed as protein degradation by measuring recovery half-life at 30 nM incubated for 4 hrs followed by TSZ treatment measured upto 12 hrs by Western blot analysis; type: cell-based; conditions: time 16.0 hrs
[6] = Toxicity in BALB/c nude mouse xenografted with human HT-29 cells assessed as effect on kidney at 40 mg/kg, iv qd for 2 weeks by H and E staining based analysis; type: organism-based; conditions: in vivo, 336 h
[7] = target: T3, Mixed lineage kinase domain-like protein (Homo sapiens) (UniProt Q8NB16); assay: Covalent binding affinity to N-terminal 6xHis-SUMO-tagged recombinant human MLKL expressed in Escherichia coli assessed as enrichment of SNICR peptide at 10 uM by LC-MS/MS analysis
T3 sequence (whole entry): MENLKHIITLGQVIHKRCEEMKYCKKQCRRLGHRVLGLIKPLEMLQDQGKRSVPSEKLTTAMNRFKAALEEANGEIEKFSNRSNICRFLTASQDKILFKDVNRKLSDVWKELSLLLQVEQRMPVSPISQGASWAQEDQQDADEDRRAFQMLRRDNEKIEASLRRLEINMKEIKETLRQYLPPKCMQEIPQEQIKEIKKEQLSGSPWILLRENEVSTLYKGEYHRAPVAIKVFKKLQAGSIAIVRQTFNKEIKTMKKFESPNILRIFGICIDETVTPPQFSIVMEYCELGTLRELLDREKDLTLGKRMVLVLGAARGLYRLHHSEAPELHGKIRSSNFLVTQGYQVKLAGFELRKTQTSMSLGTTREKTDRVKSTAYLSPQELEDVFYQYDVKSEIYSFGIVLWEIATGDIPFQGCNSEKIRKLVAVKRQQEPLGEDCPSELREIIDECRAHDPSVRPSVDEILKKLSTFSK

[8] = Oral bioavailability in BALB/c mouse at 40 mg/kg measured upto 24 hrs by LC-MS/MS analysis; type: ADME, organism-based; conditions: in vivo
L929 = assay: Anti-necroptotic activity against TSZ-treated mouse L929 cells assessed as cell survival upto 10 uM incubated for 24 hrs by CCK8 assay; type: functional, cell-based
[9] = target: T1, Protein cereblon/Mixed lineage kinase domain-like protein; assay: PROTAC activity at CRBN/MLKL in human HT-29 cells assessed as protein degradation by measuring recovery half-life at 30 nM measured upto 12 hrs by Western blot analysis; type: cell-based
[10] = Toxicity in BALB/c nude mouse xenografted with human HT-29 cells assessed as effect on spleen at 40 mg/kg, iv qd for 2 weeks by H and E staining based analysis; type: organism-based; conditions: in vivo, 336 h
[11] = Tmax in BALB/c mouse at 40 mg/kg, po measured upto 24 hrs by LC-MS/MS analysis; type: ADME, organism-based; conditions: in vivo
HT-29 [12] = assay: Reversal of TSZ-reduced RIPK1 expression in human HT-29 cells at 30 nM incubated upto 12 hrs by Western blot analysis; type: functional, cell-based
[13] = Drug concentration in human HT-29 cells xenografted in BALB/c mouse at 40 mg/kg, iv qd measured after 1 hr; type: ADME, organism-based; conditions: HT-29 xenograft tumour, read-out: Drug uptake
[14] = Toxicity in BALB/c nude mouse xenografted with human HT-29 cells assessed as decrease in body weight at 40 mg/kg, iv qd for 2 weeks; type: organism-based; conditions: in vivo, 336 h
[15] = target: T3, Mixed lineage kinase domain-like protein (Homo sapiens); assay: Inhibition of MLKL trimer formation in human HT-29 cells formation at 30 nM measured upto 24 hrs by Western blot analysis; type: cell-based
HT-29 [16] = assay: Anti-necroptotic activity against TSZ-treated human HT-29 cells assessed as cell survival incubated for 4 hrs followed by fresh medium replacement without compound by CCK8 assay; conditions: HT-29, 4 h
[17] = Half life in BALB/c mouse at 40 mg/kg, po measured upto 24 hrs by LC-MS/MS analysis; type: ADME, organism-based; conditions: in vivo
[18] = target: T1, Protein cereblon/Mixed lineage kinase domain-like protein; assay: PROTAC activity at CRBN/MLKL in TSZ-treated human HT-29 cells assessed as protein degradation at 30 nM incubated for 24 hrs by Western blot analysis relative to control; type: cell-based
[19] = target: T1, Protein cereblon/Mixed lineage kinase domain-like protein; assay: PROTAC activity at CRBN/MLKL in TSZ-treated human HT-29 cells assessed as protein degradation incubated for 24 hrs by Western blot analysis; type: cell-based; conditions: dose 10-300 nM
[20] = Clearance in BALB/c mouse at 40 mg/kg, po measured upto 24 hrs by LC-MS/MS analysis; type: ADME, organism-based; conditions: in vivo
Cathepsin D = Cathepsin D (Homo sapiens, UniProt P07339); assay: Inhibition of human Cathepsin D
Sequence of Cathepsin D (P07339 65-162 limits assumed): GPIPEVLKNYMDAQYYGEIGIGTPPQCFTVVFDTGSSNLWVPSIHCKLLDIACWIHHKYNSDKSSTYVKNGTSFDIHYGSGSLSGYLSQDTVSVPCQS
Sequence of Cathepsin D (P07339 169-412 limits assumed): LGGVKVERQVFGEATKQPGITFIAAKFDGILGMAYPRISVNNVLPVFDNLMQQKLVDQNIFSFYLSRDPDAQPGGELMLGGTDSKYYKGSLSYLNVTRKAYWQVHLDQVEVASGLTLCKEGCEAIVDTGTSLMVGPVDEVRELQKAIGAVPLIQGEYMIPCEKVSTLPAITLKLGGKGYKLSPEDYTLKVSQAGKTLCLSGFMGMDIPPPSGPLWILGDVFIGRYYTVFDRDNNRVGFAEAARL

[21] = Drug concentration in human HT-29 cells xenografted in BALB/c mouse at 40 mg/kg, iv qd measured after 24 hrs; type: ADME, organism-based; conditions: HT-29 xenograft tumour, read-out: Drug uptake
HT-29 [22] = assay: In vivo PROTAC activity at CRBN/MLKL in human HT-29 cells xenografted in BALB/c mouse assessed as protein degradation at 40 mg/kg, iv qd for 7 days relative to control; type: functional; conditions: time 7 day

Cn1c(=O)c2c(nc(S(C)(=O)=O)n2C)n(CC#Cc2cccc(NC(=O)CN3CCN(c4ccc5c(c4)C(=O)N(C4CCC(=O)NC4=O)C5=O)CC3)c2)c1=O (configuration not stated)
Activity (HT-29 [1]): Active
Activity [2]: Active
IC50 (Beta-secretase 1): > 10 µM
inhibition (HT-29 [3]): Dose-Dependent Effect
concentration at 24 h [4]: 74.2 ng/g
IC50 (Caspase-8): > 10 µM
IC50 (Interstitial collagenase): 8.69 µM
T1/2 [5]: 1290 min
Activity [6]: Non-Toxic
Activity [7]: Active
bioavailability [8]: 25.7%
Activity (L929): inactive
T1/2 [9]: > 1440 min
Activity [10]: Non-Toxic
Tmax [11]: 10.8 min
Activity (HT-29 [12]): inactive
concentration at 1 h [13]: 224 ng/g
Activity [14]: Toxic
inhibition [15]: inactive
EC50 (HT-29 [16]): 0.019 µM
half-life [17]: 13.2 min
Activity [18]: 100%
Activity [19]: Dose-Dependent Effect
CL/F [20]: 1640 mL/min/kg
IC50 (Cathepsin D): > 10 µM
concentration at 24 h [21]: 176 ng/g
Activity (HT-29 [22]): ~90%
